We go through 24 molecules from article PMC7582705, “Structure-Based Discovery of Novel Chemical Classes of Autotaxin Inhibitors” (International Journal of Molecular Sciences, 2020).

Experiment [1] concerns the target T1, ATX (Homo sapiens, UniProt Q13822). In words: Amplex Red Lyso-phospholipase D assay, human ATX. Format: biochemical. On the set-up: purchased Sino Biological. Conditions: for pIC50: Table S2, Sino hATX 2nM; for inhibition at 30 µM: read-out: %inhibition at 30uM. Here is the method: All compounds proposed were assessed for their ATX inhibitory activity in vitro using the Amplex Red assay. The Amplex Red Lyso-phospholipase D assay is a fluorometry-based assay providing a sensitive method for measuring Lyso-phospholipase D (ATX) activity in vitro. In this enzyme-coupled assay, ATX activity is monitored indirectly using 10-acetyl-3,7-dihydrophenoxazine (Amplex Red reagent), a sensitive fluorogenic probe for H2O2. ATX initially cleaves the Lysophosphatidylcholine (LPC) substrate to yield choline and Lysophosphatidic acid (LPA), while choline gets subsequently oxidized by choline oxidase to betaine and H2O2. Lastly, H2O2, in the presence of horseradish peroxidase (HRP), reacts with Amplex Red reagent in a 1:1 stoichiometry to generate the highly fluorescent product resorufin.
The inhibition assay was performed as previously described with some modifications in order to accommodate the newly-discovered lag phase in ATX kinetics. To this end, and in order to provide adequate time to the hydrolysis of LPC by ATX, we added a 30min incubation period between ATX, inhibitors and LPC. Briefly, 2 μL of different concentrations of inhibitors diluted in DMSO (Sigma-Aldrich, St. Louis, MO, USA) were incubated with 50 µL of ATX 8 nM (human or mouse ATX from Sino Biological), and 48 µL reaction buffer (50 mM Tris-Cl pH 8.0 from Thermo Fisher Scientific, Waltham, MA, USA and 5 mM CaCl2 from Honeywell-Fluka, Charlotte, NC, USA) in a black 96-well microplate for 15 min at 37 °C. Thence, another 50 µL of reaction buffer with 200 μM LPC substrate 16:0 (Avanti Polar Lipids Inc, Alabaster, AL, USA) ([…]) was added to the reaction mixture and incubated for 30 min at 37 °C in order for ATX to convert LPC to LPA and choline. Finally, 50 µL of working solution containing 200 μM Amplex Red (Invitrogen, Carlsbad, CA, USA), 4 U/mL HRP (Sigma-Aldrich, St. Louis, MO, USA), 0.4 U/mL choline oxidase (Sigma-Aldrich, St. Louis, MO, USA) in 50 mM Tris-HCl pH 8.0 and 5 mM CaCl2 was added to measure the produced choline. The reaction was monitored at 37 °C in a fluorescence plate reader using excitation at 530 nm and reading at 590 nm, every 5 min for 30 min. The velocity of the reaction and the remaining activity of ATX were calculated at the linear phase of the reaction and dose-response inhibition graphs were plotted with GraphPad Software (GraphPad Software, San Diego, CA, USA). […] In order to evaluate a possible effect of the compounds on the second (choline oxidase) and third (HRP) enzymes of the Amplex Red assay, we also performed the assay in the absence of ATX but in the presence of the compounds. Instead of ATX, we added choline chloride at a final concentration of 2 µM so as the second and third steps of the assay could proceed normally.

Experiment [2] addresses T1, ATX. Description: IC50 Eleanna (Table S2, method not described). In kind it is biochemical. The conditions noted are these: Table S2; read-out: IC50 Eleanna.
Setting [3] is: read-out: in vitro IC50 (Sino hATX 2nM).

pIC50: −log10 of the molar value.

By pIC50 is commonly meant the IC50 on a negative log10 scale, so that one unit is a factor of ten. As for `Cc1nc(-c2ccc(NS(=O)(=O)c3ccc4c5c(cccc35)CC4)cc2)cs1` [SC-30, N-[4-(2-methyl-1,3-thiazol-4-yl)phenyl]-1,2-dihydroacenaphthylene-5-sulfonamide], the results for the pIC50 against ATX [1] (in vitro IC50 (Sino hATX 2nM)) and at ATX [2] were below 4.52 and below 5.30, respectively.
Usually inhibition stands for the change of the read-out against control, counted positive when it falls. `CCOC(=O)c1c(CN2CCCCC2)n(-c2ccccc2)c2cc(Br)c(OC)cc12` [KM-6, ethyl 6-bromo-5-methoxy-1-phenyl-2-(piperidin-1-ylmethyl)indole-3-carboxylate]: at ATX [1] (Table S2, at 30uM), the inhibition at 30 µM turned out to be 20.6%. Moreover, the pIC50 was below 4.52 against ATX [1] (in vitro IC50 (Sino hATX 2nM)) and 5.35 on ATX [2].
On to `COCCCN1C(=O)c2[nH]nc(-c3ccccc3)c2C1c1ccc(C(C)C)cc1` (stereo not drawn) [KM-2, 5-(3-methoxypropyl)-3-phenyl-4-(4-propan-2-ylphenyl)-1,4-dihydropyrrolo[3,4-c]pyrazol-6-one], for which the pIC50 was below 4.52 at ATX [1] (in vitro IC50 (Sino hATX 2nM)) and below 5.30 at ATX [2].
For the molecule `O=C(Nc1c2c(nn1-c1ccccc1)C[S+]([O-])C2)c1cccc2ccccc12` (stereo not drawn) [SC-9, N-(5-oxo-2-phenyl-4,6-dihydrothieno[3,4-c]pyrazol-3-yl)naphthalene-1-carboxamide], the negative logarithm of the IC50 (pIC50) against ATX [1] (in vitro IC50 (Sino hATX 2nM)) was below 4.52; at ATX [2] it was below 5.30.
Taken in the same sequence, the figures for `O=S(=O)(c1ccc(F)cc1)N1C=Cc2ccccc2C1c1c[nH]c2ccccc12` (stereo not drawn) [SC-4, 2-(4-fluorophenyl)sulfonyl-1-(1H-indol-3-yl)-1H-isoquinoline] were below 4.52 and below 5.30.
Consider `Cc1ccc(S(=O)(=O)n2cc(C=C3C(=O)Nc4ccccc43)c3ccccc32)cc1` [SC-18, 3-[[1-(4-methylphenyl)sulfonylindol-3-yl]methylidene]-1H-indol-2-one], for which, on ATX [1] (Table S2, at 30uM), the inhibition at 30 µM amounted to 55.3%. Besides, the pIC50 on ATX [1] (in vitro IC50 (Sino hATX 2nM)) was 4.52; at ATX [2], 5.30.
As to `CCc1ccccc1NC(=O)C1c2ccccc2C(=O)N(CCOC)C1c1cccs1` (stereo not drawn) [KM-4, N-(2-ethylphenyl)-2-(2-methoxyethyl)-1-oxo-3-thiophen-2-yl-3,4-dihydroisoquinoline-4-carboxamide], the figures for the pIC50 against ATX [1] (in vitro IC50 (Sino hATX 2nM)) and on ATX [2] were below 4.52 and below 5.30, respectively.
For the molecule `Cc1ncc(-c2ccc(NS(=O)(=O)c3ccc4c5c(cccc35)CC4)cc2)o1` [SC-37, N-[4-(2-methyl-1,3-oxazol-5-yl)phenyl]-1,2-dihydroacenaphthylene-5-sulfonamide], the pIC50 against ATX [1] (in vitro IC50 (Sino hATX 2nM)) was below 4.52; at ATX [2], below 5.30.
With `O=C(Cn1cnc2ccsc2c1=O)c1c(-c2ccccc2)[nH]c2ccccc12` [SC-34, 3-[2-oxo-2-(2-phenyl-1H-indol-3-yl)ethyl]thieno[3,2-d]pyrimidin-4-one], the inhibition at 30 µM at ATX [1] (Table S2, at 30uM) is 16%. For the same molecule, the negative logarithm of the IC50 (pIC50) against ATX [1] (in vitro IC50 (Sino hATX 2nM)) was below 4.52; on ATX [2] it was 5.30.
Regarding `O=C(Cc1cccc2ccccc12)Nc1c2c(nn1-c1ccccc1)CS(=O)(=O)C2` [SC-5, N-(5,5-dioxo-2-phenyl-4,6-dihydrothieno[3,4-c]pyrazol-3-yl)-2-naphthalen-1-ylacetamide], on ATX [1] (Table S2, at 30uM), the inhibition at 30 µM was determined as 43%. Moreover, the pIC50 at ATX [1] (in vitro IC50 (Sino hATX 2nM)) was 4.52; at ATX [2], 5.66.
Take `O=C1NC(=O)C(=Cc2cn(Cc3ccc4ccccc4c3)c3ccccc23)S1` [SC-45, 5-[[1-(naphthalen-2-ylmethyl)indol-3-yl]methylidene]-1,3-thiazolidine-2,4-dione]: the results for the pIC50 on ATX [1] (in vitro IC50 (Sino hATX 2nM)) and on ATX [2] were below 4.52 and below 5.30, respectively.
As for `Cc1cc(C)cc(NC(=O)CSc2cn(CC(=O)N3CCCC3)c3ccccc23)c1` [KM-50, N-(3,5-dimethylphenyl)-2-[1-(2-oxo-2-pyrrolidin-1-ylethyl)indol-3-yl]sulfanylacetamide], the values for the pIC50 against ATX [1] (in vitro IC50 (Sino hATX 2nM)) and at ATX [2] were below 4.52 and 5.30, respectively.
For orientation: %inhibition means the change of the read-out against control, counted positive when it falls. The low end stands for little suppression, the high end for strong suppression. For `CCOC(=O)c1c(-c2ccccc2)oc2ccc(O)c(CN3CCC(C)CC3)c12.Cl` [KM-40, ethyl 5-hydroxy-4-[(4-methylpiperidin-1-yl)methyl]-2-phenyl-1-benzofuran-3-carboxylate;hydrochloride], the “%inhibition at 30uM” value on ATX [1] (Table S2, at 30uM) turned out to be 41.295%. Further, the negative logarithm of the IC50 (pIC50) at ATX [1] (setting [3]) is below 4.52.
As to `Cc1ccc(-n2nc3c(c2NC(=O)c2ccc4ccccc4c2)C[S+]([O-])C3)cc1` (stereo not drawn) [SC-27, N-[2-(4-methylphenyl)-5-oxo-4,6-dihydrothieno[3,4-c]pyrazol-3-yl]naphthalene-2-carboxamide], the negative logarithm of the IC50 (pIC50) was below 4.52 at ATX [1] (in vitro IC50 (Sino hATX 2nM)) and below 5.30 at ATX [2].
`COc1ccccc1C(=O)NCc1nc2ccccc2n1Cc1cc(C)ccc1C` [KM-9, N-[[1-[(2,5-dimethylphenyl)methyl]benzimidazol-2-yl]methyl]-2-methoxybenzamide,]: the inhibition at 30 µM at ATX [1] (Table S2, at 30uM) came to 17.1%. Also, the pIC50 against ATX [1] (in vitro IC50 (Sino hATX 2nM)) was below 4.52; at ATX [2], 5.30.
Turning to `CCOC(=O)c1c(C)c(-c2ccccc2)n(CC(=O)N2CCc3ccccc3C2)c1C` [KM-49, ethyl 1-[2-(3,4-dihydro-1H-isoquinolin-2-yl)-2-oxoethyl]-2,4-dimethyl-5-phenylpyrrole-3-carboxylate], the pIC50 against ATX [1] (in vitro IC50 (Sino hATX 2nM)) was below 4.52; at ATX [2], 5.30.
Regarding `CCOC(=O)Cc1c(CN2CCN(C)CC2)c2ccccc2n1Cc1ccccc1` [KM-30, ethyl 2-[1-benzyl-3-[(4-methylpiperazin-1-yl)methyl]indol-2-yl]acetate], at ATX [1] (Table S2, at 30uM), the inhibition at 30 µM turned out to be 0%. Moreover, the negative-log IC50 (pIC50) on ATX [1] (in vitro IC50 (Sino hATX 2nM)) was below 4.52; on ATX [2] it was 5.30.
With `CN1C(=O)C(=NNC(=O)c2cc(-c3cccs3)nc3ccccc23)c2ccccc21` [SC-40, N-[(1-methyl-2-oxoindol-3-ylidene)amino]-2-thiophen-2-ylquinoline-4-carboxamide], the pIC50 was below 4.52 on ATX [1] (in vitro IC50 (Sino hATX 2nM)) and below 5.30 on ATX [2].
Taken in the same sequence, the figures for `O=C(Nc1c2c(nn1-c1ccccc1)CS(=O)(=O)C2)c1cccc2ccccc12` [SC-6, N-(5,5-dioxo-2-phenyl-4,6-dihydrothieno[3,4-c]pyrazol-3-yl)naphthalene-1-carboxamide] were below 4.52 and below 5.30.
For `Cc1ccc(-n2nc3c(c2NC(=O)c2cccc4ccccc24)CS(=O)(=O)C3)cc1` [SC-43, N-[2-(4-methylphenyl)-5,5-dioxo-4,6-dihydrothieno[3,4-c]pyrazol-3-yl]naphthalene-1-carboxamide], the values for the pIC50 against ATX [1] (in vitro IC50 (Sino hATX 2nM)) and at ATX [2] were below 4.52 and below 5.30, respectively.
On to `COc1cc([C@H]2c3cccn3CCN2C(=S)Nc2ccccc2C)cc(OC)c1OC` [KM-27, N-(o-tolyl)-1-(3,4,5-trimethoxyphenyl)-3,4-dihydro, (1S)-N-(2-methylphenyl)-1-(3,4,5-trimethoxyphenyl)-3,4-dihydro-1H-pyrrolo[1,2-a]pyrazine-2-carbothioamide], for which the pIC50 at ATX [1] (setting [3]) is below 4.52; at ATX [2], 6.00.
As to `CC12N[N+](c3ccccc3)=C(c3ccccc3)C1S(=O)(=O)c1ccccc12` (stereo not drawn) [SC-36, 8b-methyl-2,3-diphenyl-1,3a-dihydro-[1]benzothiolo[3,2-c]pyrazol-2-ium 4,4-dioxide], the pIC50 on ATX [1] (setting [3]) is below 4.52; on ATX [2] it was below 5.30.
Consider `O=C1c2ccccc2-c2ccc(C(=O)N3CCN(C(=O)c4cccs4)CC3)cc21` [SC-42, 2-[4-(thiophene-2-carbonyl)piperazine-1-carbonyl]fluoren-9-one], for which the pIC50 was below 4.52 on ATX [1] (in vitro IC50 (Sino hATX 2nM)) and 5.34 on ATX [2].
Taken in the same sequence, the figures for `COc1ccc(NC(=S)N2CCn3cccc3C2c2ccc(OC)c(OC)c2)cc1` (stereo not drawn) [KM-31, 1-(3,4-dimethoxyphenyl)-N-(4-methoxyphenyl)-3,4-dihydro-1H-pyrrolo[1,2-a]pyrazine-2-carbothioamide] were below 4.52 and 5.35.
